Assay results from patent US7067665B2, “Oxybenzamide derivatives useful for inhibiting factor Xa or Vlla” (Sanofi-Aventis Deutschland GmbH, priority 2000, dated 2006).
Where two headings read alike, the source gives them in different places.

Molecular target: T1, human factor Xa (Homo sapiens, UniProt P00742)
T1 construct: 25 μl human factor Xa (Enzyme Research Laboratories, Inc; South Bend, Ind.); purchased Enzyme Research Laboratories, Inc; South Bend, Ind
Experiment: Factor Xa chromogenic assay (substrate S-2765);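 note: purified enzyme, compound preincubated with the enzyme for 10 min before substrate addition starts the reaction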
Assay type: biochemical
Settings: read-out: Ki(FXa)

[1] = inhibition constant for inhibition of factor Xa, IC50 corrected for substrate competition, 25° C., enzyme 0.5 nM, substrate 140 μM

T1 sequence (P00742 235-488 limits assumed): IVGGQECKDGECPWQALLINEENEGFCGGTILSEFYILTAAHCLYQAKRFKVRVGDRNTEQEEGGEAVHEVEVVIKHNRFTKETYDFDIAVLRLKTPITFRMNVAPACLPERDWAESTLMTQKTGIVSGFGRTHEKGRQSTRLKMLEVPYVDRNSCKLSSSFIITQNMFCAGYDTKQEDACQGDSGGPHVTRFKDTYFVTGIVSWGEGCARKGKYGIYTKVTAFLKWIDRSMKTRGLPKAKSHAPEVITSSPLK
T1 sequence (P00742 41-179 partner limits assumed): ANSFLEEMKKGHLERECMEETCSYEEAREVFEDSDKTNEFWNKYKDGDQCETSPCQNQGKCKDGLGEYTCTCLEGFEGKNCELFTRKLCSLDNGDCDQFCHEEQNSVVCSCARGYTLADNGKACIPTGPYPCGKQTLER

In the case of O=C(NCC1CCN(c2ccncc2)CC1)c1cc(OCCc2ccc(Cl)cc2Cl)c[n+]([O-])c1 [Example 102, 5-[2-(2,4-Dichloro-phenyl)-ethoxy]-1-oxy-N-(3,4,5,6-tetrahydro-2H-[1,4′]bipyridinyl-4-ylmethyl)-nicotinamide], the Ki is reported as 636 nM.

O=C(NCC1CCN(c2ccncc2)CC1)c1cc(OCCc2ccc(Cl)cc2Cl)cc(C(=O)NCC2CCN(c3ccncc3)CC2)c1 [Example 227, 5-[2-(2,4-Dichloro-phenyl)-ethoxy]-N,N′-bis-(3,4,5,6-tetrahydro-2H-[1,4′]bipyridinyl-4-ylmethyl)-isophthalamide] showed a Ki of 58 nM.

Work on COc1ccc(C(=O)NCC2CCN(c3ccncc3)CC2)cc1Oc1nc2ccc(Cl)cc2s1 [Example 94] yielded a Ki of 760 nM.

Compound COc1cc(C(=O)NCC2CCN(c3cc[n+](O)cc3)CC2)cc(OCCc2ccc(Cl)cc2Cl)c1Cl [Example 228, 4-Chloro-3-[2-(2,4-dichloro-phenyl)-ethoxy]-5-methoxy-N-(1′-oxy-3,4,5,6-tetrahydro-2H-[1,4′]bipyridinyl-4-ylmethyl)-benzamide] has a Ki of 220 nM.

Compound COc1ccc(C(=O)N2CCN(CC(=O)N(C)C)CC2)cc1OCCc1ccc(Cl)cc1Cl [Example 13, 2-(4-{3-[2-(2,4-Dichlorophenyl)-ethoxy]-4-methoxy-benzoyl}-piperazin-1-yl)-N,N-dimethyl-acetamide] has a Ki [1] of 1410 nM.

COc1ccc(C(=O)NCC2CCN(c3cc[n+]([O-])cc3)CC2)cc1OCCc1ccc(Cl)cc1Cl [Example 66] gave a Ki [1] of 1480 nM.

COc1ccc(C(=O)NCC2CCN(C3CCCC3)CC2)cc1OCCc1ccc(Cl)cc1Cl [Example 54, N-(1-Cyclopentyl-piperidin-4-ylmethyl)-3-[2-(2,4-dichloro-phenyl)-ethoxy]-4-methoxy-benzamide] was tested, and the Ki [1] was 6520 nM.

COc1ccc(C(=O)N2CCN(CCCN(C)C)CC2)cc1OCCc1ccc(Cl)cc1Cl [Example 195] was tested, and the Ki was 6740 nM.

COc1ccc(C(=O)N2CCN(Cc3ccccn3)CC2)cc1OCCc1ccc(Cl)cc1Cl [Example 2, {3-[2-(2,4-Dichlorophenyl)-ethoxy]-4-methoxy-phenyl}-(4-pyridin-2-ylmethyl-piperazin-1-yl)-methanone] gave a Ki [1] of 1540 nM.

COc1ccc(C(=O)N2CCCN(CCCN3CCCC3)CC2)cc1OCCc1ccc(Cl)cc1Cl [Example 196] gave a Ki of 4270 nM.

Compound O=C(NCC1CCN(c2ccncc2)CC1)c1cc(OCCc2ccc(Cl)cc2Cl)ccc1Cl [Example 81] has a Ki of 241 nM.

For COc1ccc(C(=O)NCC2CCC(CN)CC2)cc1OCCc1ccc(Cl)cc1Cl (stereo not shown) [Example 31, N-(4-Aminomethyl-cyclohexylmethyl)-3-[2-(2,4-dichloro-phenyl)-ethoxy]-4-methoxy-benzamide], the Ki [1] was 9340 nM.

Compound Cc1ccc(C(=O)NCC2CCN(c3ccnc(Cl)n3)CC2)cc1OCCc1ccc(Cl)cc1Cl [Example 172, N-[1-(2-Chloro-pyrimidin-4-yl)-piperidin-4-ylmethyl]-3-[2-(2,4-dichloro-phenyl)-ethoxy]-4-methyl-benzamide] has a Ki of 6450 nM.

Work on COc1cccc(COc2cc(C(=O)NCC3CCN(c4ccncc4)CC3)ccc2C)c1 [Example 241] yielded a Ki of 2170 nM.

For COc1ccc(C(=O)NCC2CCN(c3ccncc3)CC2)cc1OCC1(c2ccc(Cl)cc2)CC1 [Example 140], the Ki was 69500 nM.

Compound COc1ccc(C(=O)NCCCN2CCCCC2)cc1OCCc1ccc(Cl)cc1Cl [Example 15, 3-[2-(2,4-Dichlorophenyl)-ethoxy]-4-methoxy-N-(3-piperidin-1-yl-propyl)-benzamide] has a Ki [1] of 2220 nM.

O=C(NCC1CCN(c2ccncc2)CC1)c1cc(O)c(Br)c(OCCc2ccc(Cl)cc2Cl)c1 [Example 86] gave a Ki of 26 nM.

COc1ccc(C(=O)NCC2CCN(c3ccncc3)CC2)cc1OCc1cc(-c2ccc(Cl)s2)on1 [Example 93, 3-[5-(5-Chloro-thiophen-2-yl)-isoxazol-3-ylmethoxy]-4-methoxy-N-(3,4,5,6-tetrahydro-2H-[1,4′]bipyridinyl-4-ylmethyl)-benzamide] was tested, and the Ki was 188 nM.

COc1ccc(C(=O)NCC2CCN(c3ccncc3)CC2)cc1NC(=O)Cc1ccc(Cl)cc1Cl [Example 100, 3-[2-(2,4-Dichloro-phenyl)-acetylamino]-4-methoxy-N-(3,4,5,6-tetrahydro-2H-[1,4′]bipyridinyl-4-ylmethyl)-benzamide] showed a Ki of 298 nM.

For CCOc1cc(C(=O)N2CCN(Cc3ccncc3)CC2)cc(OCCc2ccc(Cl)cc2Cl)c1OCC [Example 177, {3-[2-(2,4-Dichloro-phenyl)-ethoxy]-4,5-diethoxy-phenyl}-(4-pyridin-4-ylmethyl-piperazin-1-yl)-methanone], the Ki was 226 nM.

Work on COc1cc(C(=O)N2CCN(Cc3ccncc3)CC2)cc(OCCc2ccc(Cl)cc2Cl)c1Br [Example 19, {4-Bromo-3-[2-(2,4-dichlorophenyl)-ethoxy]-5-methoxyphenyl}-(4-pyridin-4-ylmethyl-piperazin-1-yl)-methanone] yielded a Ki of 95 nM.

In the case of COc1cc(C(=O)NCC2CCN(c3ccncc3)CC2)cc(OCCc2ccc(Cl)cc2)c1Cl [Example 202, 4-Chloro-3-[2-(4-chloro-phenyl)-ethoxy]-5-methoxy-N-(3,4,5,6-tetrahydro-2H-[1,4′]bipyridinyl-4-ylmethyl)-benzamide], the Ki [1] is reported as 25 nM.

Work on COc1ccc(C(=O)N2CCN(Cc3ccc(F)cc3)CC2)cc1OCCc1ccc(Cl)cc1Cl [Example 12, {3-[2-(2,4-Dichlorophenyl)-ethoxy]-4-methoxy-phenyl}-[4-(4-fluorobenzyl)-piperazin-1-yl]-methanone] yielded a Ki of 3010 nM.

Work on COc1ccc(C(=O)NC2CCN(C3CCCCC3)CC2)cc1OCCc1ccc(Cl)cc1Cl [Example 128, N-(1-Cyclohexyl-piperidin-4-yl)-3-[2-(2,4-dichloro-phenyl)-ethoxy]-4-methoxy-benzamide] yielded a Ki of 40900 nM.

O=C(O)c1cc(OCCc2ccc(Cl)cc2Cl)cc(C(=O)NCC2CCN(c3ccncc3)CC2)c1 [Example 226, 5-[2-(2,4-Dichlorophenyl)-ethoxy]-N-(3,4,5,6-tetrahydro-2H-[1,4′]bipyridinyl-4-ylmethyl)-isophthalamic acid] was tested, and the Ki was 82 nM.

Compound Cc1ccc(C(=O)NCC2CCN(c3ccncc3)CC2)cc1OCc1ccc(Cl)cc1 [Example 239] has a Ki of 3840 nM.

COc1cc(C(=O)NCC2CCN(c3ccnc(C)c3)CC2)cc(OCCc2ccc(Cl)cc2)c1Cl [Example 222, 4-Chloro-3-[2-(4-chloro-phenyl)-ethoxy]-5-methoxy-N-(2′-methyl-3,4,5,6-tetrahydro-2H-[1,4′]bipyridinyl-4-ylmethyl)-benzamide] was tested, and the Ki was 72 nM.

In the case of COc1ccc(C(=O)N2CCN(CCN3CCCC3)CC2)cc1OCCc1ccc(Cl)cc1Cl [Example 198], the Ki is reported as 5000 nM.

O=C(c1cc(OCCc2ccc(Cl)cc2Cl)c2c(c1)OCO2)N1CCN(Cc2ccncc2)CC1 [Example 186, {7-[2-(2,4-Dichloro-phenyl)-ethoxy]-benzo[1,3]dioxol-5-yl}-(4-pyridin-4-ylmethyl-piperazin-1-yl)-methanone] was tested, and the Ki was 401 nM.

Work on COc1cc(C(=O)N2CCN(Cc3ccncc3)CC2)cc(OCCc2ccc(Cl)cc2Cl)c1OC [Example 5, {3-[2-(2,4-Dichloro-phenyl)-ethoxy]-4,5-dimethoxy-phenyl}-(4-pyridin-4-ylmethyl-piperazin-1-yl)-methanone] yielded a Ki [1] of 167 nM.

Compound O=C(NCC1CCN(c2ccncc2)CC1)c1cccc(CNCc2ccc(Cl)cc2Cl)c1 [Example 233, 3-[(2,4-Dichloro-benzylamino)-methyl]-N-(3,4,5,6-tetrahydro-2H-[1,4′]bipyridinyl-4-ylmethyl)-benzamide] has a Ki of 275 nM.
